# Data from patent publication US20080242663A1, “NOVEL PYRIMIDINE DERIVATIVES 698” (ASTRAZENECA AB, priority 2007, published 2008).
# Biological target: T1, recombinant EphB4 (Homo sapiens, UniProt P54760)
# T1 construct: amino acids 563-987; Swiss-Prot Acc; No. P54760; purchased ProQinase GmbH 0178-0000-3
# T1 sequence (P54760 563-987): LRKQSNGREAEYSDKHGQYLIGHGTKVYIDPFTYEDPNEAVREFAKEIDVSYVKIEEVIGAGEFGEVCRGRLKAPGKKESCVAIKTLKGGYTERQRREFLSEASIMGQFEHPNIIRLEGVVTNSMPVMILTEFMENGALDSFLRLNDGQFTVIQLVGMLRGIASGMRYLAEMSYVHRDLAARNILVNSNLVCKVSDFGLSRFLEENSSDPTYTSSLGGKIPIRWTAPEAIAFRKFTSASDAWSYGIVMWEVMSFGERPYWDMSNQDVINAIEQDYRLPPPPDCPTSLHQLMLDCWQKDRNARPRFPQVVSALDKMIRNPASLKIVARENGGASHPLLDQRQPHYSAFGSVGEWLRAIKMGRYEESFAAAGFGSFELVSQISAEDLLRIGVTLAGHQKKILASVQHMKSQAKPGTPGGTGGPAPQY
# Test: In vitro EphB4 enzyme assay (Alphascreen)
# Format: biochemical
# Method: This assay detects inhibitors of EphB4-mediated phosphorylation of a polypeptide substrate using Alphascreen™ luminescence detection technology. Briefly, recombinant EphB4 was incubated with a biotinylated-polypeptide substrate (biotin-poly-GAT) in presence of magnesium-ATP. The reaction was stopped by addition of EDTA, together with streptavidin-coated donor beads which bind the biotin-substrate containing any phosphorylated tyrosine residues. Anti-phosphotyrosine antibodies present on acceptor beads bind to phosphorylated substrate, thus bringing the donor & acceptor beads into close proximity. Subsequent excitation of the donor beads at 680 nm generated singlet oxygen species that interact with a chemiluminescer on the acceptor beads, leading to light emission at 520-620 nm. The signal intensity is directly proportional to the level of substrate phosphorylation and thus inhibition is measured by a decrease in signal.
# Assay plates were then incubated at room temperature for 1 hr. […] The plates were sealed under natural lighting conditions, wrapped in aluminium foil and incubated in the dark for a further 20 hrs.
# The resulting assay signal was determined on the Perkin Elmer EnVision plate reader. The minimum value was subtracted from all values, and the signal plotted against compound concentration to generate IC50 data.
row,Structure (SMILES),IC50 [nM]
1,"CN(c1ccnc(Nc2cc(N3CCOCC3)cc(N3CCSCC3)c2)n1)c1ccc(F)c(Cl)c1F [Example 1, N′-(3-chloro-2,4-difluoro-phenyl)-N′-methyl-N-(3-morpholin-4-yl-5-thiomorpholin-4-yl-phenyl)pyrimidine-2,4-diamine]",763
2,"CN(c1ccnc(Nc2cc(N3CCOCC3)cc(N3CCOCC3)c2)n1)c1ccc(F)c(Cl)c1F [Example 2.1, N′-(3-chloro-2,4-difluoro-phenyl)-N-(3,5-dimorpholin-4-ylphenyl)-N′-methyl-pyrimidine-2,4-diamine]",829
3,"CN(c1ccnc(Nc2cccc(N3CCOCC3)c2)n1)c1ccc(F)c(Cl)c1F [Example 2.3, N′-(3-chloro-2,4-difluoro-phenyl)-N′-methyl-N-(3-morpholin-4-ylphenyl)pyrimidine-2,4-diamine]",304
4,"COc1cc(Nc2nccc(N(C)c3ccc(F)c(Cl)c3F)n2)cc(N2CCOCC2)c1 [Example 2.4, N′-(3-chloro-2,4-difluoro-phenyl)-N-(3-methoxy-5-morpholin-4-yl-phenyl)-N′-methyl-pyrimidine-2,4-diamine]",348
5,"CN(c1ccnc(Nc2cc(C#N)cc(N3CCOCC3)c2)n1)c1ccc(F)c(Cl)c1F [Example 2.5, 3-[[4-[(3-chloro-2,4-difluoro-phenyl)-methyl-amino]pyrimidin-2-yl]amino]-5-morpholin-4-yl-benzonitrile]",937
6,"CN(c1ccnc(Nc2cc(N3CCOCC3)cc(S(C)(=O)=O)c2)n1)c1ccc(F)c(Cl)c1F [Example 2.6, N′-(3-chloro-2,4-difluoro-phenyl)-N′-methyl-N-(3-methylsulfonyl-5-morpholin-4-yl-phenyl) pyrimidine-2,4-diamine]",447
7,"CN(c1ccnc(Nc2cc(CO)cc(N3CCOCC3)c2)n1)c1ccc(F)c(Cl)c1F [Example 2.7, [3-[[4-[(3-chloro-2,4-difluoro-phenyl)-methyl-amino]pyrimidin-2-yl]amino]-5-morpholin-4-yl-phenyl] methanol]",117
8,"CN(C)C(=O)c1cc(Nc2nccc(N(C)c3ccc(F)c(Cl)c3F)n2)cc(N2CCOCC2)c1 [Example 2.8, 3-[[4-[(3-chloro-2,4-difluoro-phenyl)-methyl-amino]pyrimidin-2-yl]amino]-N,N-dimethyl-5-morpholin-4-yl-benzamide]",335
9,"COCCOc1cc(Nc2nccc(N(C)c3ccc(F)c(Cl)c3F)n2)cc(N2CCOCC2)c1 [Example 2.9, N′-(3-chloro-2,4-difluoro-phenyl)-N-[3-(2-methoxyethoxy)-5-morpholin-4-yl-phenyl]-N′-methyl-pyrimidine-2,4-diamine]",781
10,"CN(c1ccnc(Nc2cc(N3CCC(O)CC3)cc(S(C)(=O)=O)c2)n1)c1ccc(F)c(Cl)c1F [Example 2.11, 1-[3-[[4-[(3-chloro-2,4-difluoro-phenyl)-methyl-amino]pyrimidin-2-yl]amino]-5-methylsulfonyl-phenyl] piperidin-4-ol]",106
11,"CC(=O)N1CCN(c2cc(Nc3nccc(N(C)c4ccc(F)c(Cl)c4F)n3)cc(S(C)(=O)=O)c2)CC1 [Example 2.12, 1-[4-[3-[[4-[(3-chloro-2,4-difluoro-phenyl)-methyl-amino]pyrimidin-2-yl]amino]-5-methylsulfonyl-phenyl]piperazin-1-yl] ethanone]",189
12,"CN(c1ccnc(Nc2cc(N3CCN(CCO)CC3)cc(S(C)(=O)=O)c2)n1)c1ccc(F)c(Cl)c1F [Example 2.13, 2-[4-[3-[[4-[(3-chloro-2,4-difluoro-phenyl)-methyl-amino]pyrimidin-2-yl]amino]-5-methylsulfonyl-phenyl]piperazin-1-yl] ethanol]",69.7
13,"COCc1cc(Nc2nccc(N(C)c3ccc(F)c(Cl)c3F)n2)cc(N2CCOCC2)c1 [Example 2.14, N′-(3-chloro-2,4-difluoro-phenyl)-N-[3-(methoxymethyl)-5-morpholin-4-yl-phenyl]-N′-methyl-pyrimidine-2,4-diamine]",653
14,"CN(c1ccnc(Nc2cc(CN3CCOCC3)cc(N3CCOCC3)c2)n1)c1ccc(F)c(Cl)c1F [Example 2.16, N′-(3-chloro-2,4-difluoro-phenyl)-N′-methyl-N-[3-morpholin-4-yl-5-(morpholin-4-ylmethyl)phenyl]py-rimidine-2,4-diamine]",307
15,"CN1CCN(Cc2cc(Nc3nccc(N(C)c4ccc(F)c(Cl)c4F)n3)cc(N3CCOCC3)c2)CC1 [Example 2.18, N′-(3-chloro-2,4-difluoro-phenyl)-N′-methyl-N-[3-[(4-methylpiperazin-1-yl)methyl]-5-morpholin-4-yl-phenyl] pyrimidine-2,4-diamine]",46.1
16,"CN(c1ccnc(Nc2cc(CN3CCC(O)CC3)cc(N3CCOCC3)c2)n1)c1ccc(F)c(Cl)c1F [Example 2.19, 1-[[3-[[4-[(3-chloro-2,4-difluoro-phenyl)-methyl-amino]pyrimidin-2-yl]amino]-5-morpholin-4-yl-phenyl]methyl]piperidin-4-ol]",59.6
17,"CN1CCN(c2cc(Nc3nccc(N(C)c4ccc(F)c(Cl)c4F)n3)cc(S(C)(=O)=O)c2)CC1 [Example 3, N′-(3-chloro-2,4-difluoro-phenyl)-N′-methyl-N-[3-(4-methylpiperazin-1-yl)-5-methylsulfonyl-phenyl]pyrimidine-2,4-diamine]",65.1
18,"CN1CCN(c2cc(Nc3nccc(N(C)c4ccc(F)c(Cl)c4F)n3)cc(N3CCOCC3)c2)CC1 [Example 5, N′-(3-chloro-2,4-difluoro-phenyl)-N′-methyl-N-[3-(4-methylpiperazin-1-yl)-5-morpholin-4-yl-phenyl]pyrimidine-2,4-diamine]",424

# Further lines, results first:
row,IC50 [nM],Structure (SMILES)
1,75.9,"Cc1ccc(CO)cc1N(C)c1ccnc(Nc2cc(N3CCOCC3)cc(N3CCC(O)CC3)c2)n1 [Example 7.8, 1-[3-[[4-[[5-(hydroxymethyl)-2-methyl-phenyl]-methyl-amino]pyrimidin-2-yl]amino]-5-morpholin-4-yl-phenyl]piperidin-4-ol]"
2,151,"Cc1ccc(CO)cc1N(C)c1ccnc(Nc2cc(N3CCOCC3)cc(N3CC[C@H](O)C3)c2)n1 [Example 7.9, (3S)-1-[3-[[4-[[5-(hydroxymethyl)-2-methyl-phenyl]-methyl-amino]pyrimidin-2-yl]amino]-5-morpholin-4-yl-phenyl]pyrrolidin-3-ol]"
3,13.5,"Cc1ccc(CO)cc1N(C)c1ccnc(Nc2cc(N3CCOCC3)cc(N3CC[C@@H](O)C3)c2)n1 [Example 7.10, (3R)-1-[3-[[4-[[5-(hydroxymethyl)-2-methyl-phenyl]-methyl-amino]pyrimidin-2-yl]amino]-5-morpholin-4-yl-phenyl]pyrrolidin-3-ol]"
4,60.1,"Cc1ccc(CO)cc1N(C)c1ccnc(Nc2cc(C(=O)N(C)C)cc(N3CCOCC3)c2)n1 [Example 7.11, 3-[[4-[[5-(hydroxymethyl)-2-methyl-phenyl]-methyl-amino]pyrimidin-2-yl]amino]-N,N-dimethyl-5-morpholin-4-yl-benzamide]"
5,32.6,"Cc1ccc(CO)cc1N(C)c1ccnc(Nc2cc(CO)cc(N3CCOCC3)c2)n1 [Example 7.13, [3-[[4-[[5-(hydroxymethyl)-2-methyl-phenyl]-methyl-amino]pyrimidin-2-yl]amino]-5-morpholin-4-yl-phenyl]methanol]"
6,195,"Cc1ccc(CO)cc1N(C)c1ccnc(Nc2cc(C#N)cc(N3CCOCC3)c2)n1 [Example 7.15, 3-[[4-[[5-(hydroxymethyl)-2-methyl-phenyl]-methyl-amino]pyrimidin-2-yl]amino]-5-morpholin-4-yl-benzonitrile]"
7,22.2,"Cc1ccc(CO)cc1N(C)c1ccnc(Nc2cc(N3CCOCC3)cc(N3CCOCC3=O)c2)n1 [Example 7.16, 4-[3-[[4-[[5-(hydroxymethyl)-2-methyl-phenyl]-methyl-amino]pyrimidin-2-yl]amino]-5-morpholin-4-yl-phenyl]morpholin-3-one]"
8,3.13,"Cc1ccc(CO)cc1N(C)c1ccnc(Nc2cc(N3CCOCC3)cc(N3CCOC[C@@H]3C)c2)n1 [Example 7.17, (S)-(4-methyl-3-(methyl(2-(3-(3-methylmorpholino)-5-morpholinophenyl-amino)pyrimidin-4-yl)amino)phenyl)methanol]"
9,6.45,"Cc1ccc(CO)cc1N(C)c1ccnc(Nc2cc(N3CCOCC3)cc(N3CCOC[C@H]3C)c2)n1 [Example 7.18, (R)-(4-methyl-3-(methyl(2-(3-(3-methylmorpholino)-5-morpholinophenyl-amino)pyrimidin-4-yl)amino)phenyl)methanol]"
10,9.73,"Cc1ccc(CO)cc1N(C)c1ccnc(Nc2cc(N3CCOCC3)cc(N3CCC(=O)CC3)c2)n1 [Example 7.19, 1-(3-(4-((5-(hydroxymethyl)-2-methylphenyl)(methyl)amino)pyrimidin-2-ylamino)-5-morpholinophenyl)piperidin-4-one]"
